Experimental data published in BindingDB's records for doi:10.1016/s0960-894x(02)00205-6 (Southern Methodist University, 2002).

Assay: Inhibitory activity against class A TEM-1 beta-lactamase

Row | Compound | IC50
1 | O=C(O)C1=C(Sc2ccccc2)CS(=O)(=O)[C@@H]2/C(=C\c3ccccn3)C(=O)N12 [Sodium; (R)-5,5,8-trioxo-3-phenylsulfanyl-7-[1-pyridin-2-yl-meth-(Z)-ylidene]-5lambda*6*-thia-1-aza-bicyclo[4.2.0]oct-2-ene-2-carboxylate] | 0.012 µM
2 | NNC(=O)/C=C/C1=C(C(=O)O)N2C(=O)/C(=C/c3ccccn3)[C@H]2S(=O)(=O)C1 [Sodium; (R)-3-((E)-2-hydrazinocarbonyl-vinyl)-5,5,8-trioxo-7-[1-pyridin-2-yl-meth-(Z)-ylidene]-5lambda*6*-thia-1-aza-bicyclo[4.2.0]oct-2-ene-2-carboxylate] | 0.39 µM
3 | N=C(N)NCCNC(=O)C=CC1=C(C(=O)O)N2C(=O)C(=Cc3ccccn3)[C@H]2S(=O)(=O)C1 [Sodium; (R)-3-[(E)-2-(2-guanidino-ethylcarbamoyl)-vinyl]-5,5,8-trioxo-7-[1-pyridin-2-yl-meth-(Z)-ylidene]-5lambda*6*-thia-1-aza-bicyclo[4.2.0]oct-2-ene-2-carboxylate] | 0.0083 µM
4 | O=C(O)C1=C(Cl)CS(=O)(=O)[C@@H]2/C(=C\c3ccccn3)C(=O)N12 [Sodium; (R)-3-chloro-5,5,8-trioxo-7-[1-pyridin-2-yl-meth-(Z)-ylidene]-5lambda*6*-thia-1-aza-bicyclo[4.2.0]oct-2-ene-2-carboxylate] | 1.82 µM
5 | CSC1=C(C(=O)O)N2C(=O)/C(=C/c3ccccn3)[C@H]2S(=O)(=O)C1 [Sodium; (R)-3-methylsulfanyl-5,5,8-trioxo-7-[1-pyridin-2-yl-meth-(Z)-ylidene]-5lambda*6*-thia-1-aza-bicyclo[4.2.0]oct-2-ene-2-carboxylate] | 1.06 µM
6 | O=C(O)C1=C(S(=O)(=O)c2ccccc2)CS(=O)(=O)[C@@H]2/C(=C\c3ccccn3)C(=O)N12 [Sodium; (R)-3-benzenesulfonyl-5,5,8-trioxo-7-[1-pyridin-2-yl-meth-(Z)-ylidene]-5lambda*6*-thia-1-aza-bicyclo[4.2.0]oct-2-ene-2-carboxylate] | 0.0094 µM
7 | O=C(O)C1=C(c2cccs2)CS(=O)(=O)[C@@H]2/C(=C\c3ccccn3)C(=O)N12 [Sodium; (R)-5,5,8-trioxo-7-[1-pyridin-2-yl-meth-(Z)-ylidene]-3-thiophen-2-yl-5lambda*6*-thia-1-aza-bicyclo[4.2.0]oct-2-ene-2-carboxylate] | 3.54 µM
8 | O=C(/C=C/C1=C(C(=O)O)N2C(=O)/C(=C/c3ccccn3)[C@H]2S(=O)(=O)C1)NC1CC1 [Sodium; (R)-3-((E)-2-cyclopropylcarbamoyl-vinyl)-5,5,8-trioxo-7-[1-pyridin-2-yl-meth-(Z)-ylidene]-5lambda*6*-thia-1-aza-bicyclo[4.2.0]oct-2-ene-2-carboxylate] | 0.24 µM
9 | O=C(O)C1=CCS(=O)(=O)[C@@H]2/C(=C\c3ccccn3)C(=O)N12 [Sodium; (R)-5,5,8-trioxo-7-[1-pyridin-2-yl-meth-(Z)-ylidene]-5lambda*6*-thia-1-aza-bicyclo[4.2.0]oct-2-ene-2-carboxylate] | 18.5 µM
10 | O=C(/C=C/C1=C(C(=O)O)N2C(=O)/C(=C/c3ccccn3)[C@H]2S(=O)(=O)C1)NO [Sodium; (R)-3-((E)-2-hydroxycarbamoyl-vinyl)-5,5,8-trioxo-7-[1-pyridin-2-yl-meth-(Z)-ylidene]-5lambda*6*-thia-1-aza-bicyclo[4.2.0]oct-2-ene-2-carboxylate] | 7.69 µM
11 | O=C(/C=C/C1=C(C(=O)O)N2C(=O)/C(=C/c3ccccn3)[C@H]2S(=O)(=O)C1)NCc1ccccc1 [Sodium; (R)-3-((E)-2-benzylcarbamoyl-vinyl)-5,5,8-trioxo-7-[1-pyridin-2-yl-meth-(Z)-ylidene]-5lambda*6*-thia-1-aza-bicyclo[4.2.0]oct-2-ene-2-carboxylate] | 1.4 µM
12 | NCCCNC(=O)/C=C/C1=C(C(=O)O)N2C(=O)/C(=C/c3ccccn3)[C@H]2S(=O)(=O)C1 [Sodium; (R)-3-[(E)-2-(3-amino-propylcarbamoyl)-vinyl]-5,5,8-trioxo-7-[1-pyridin-2-yl-meth-(Z)-ylidene]-5lambda*6*-thia-1-aza-bicyclo[4.2.0]oct-2-ene-2-carboxylate] | 1.59 µM
13 | O=C(/C=C/C1=C(C(=O)O)N2C(=O)/C(=C/c3ccccn3)[C@H]2S(=O)(=O)C1)Nc1c(F)c(F)c(F)c(F)c1F [Sodium; (R)-5,5,8-trioxo-3-((E)-2-pentafluorophenylcarbamoyl-vinyl)-7-[1-pyridin-2-yl-meth-(Z)-ylidene]-5lambda*6*-thia-1-aza-bicyclo[4.2.0]oct-2-ene-2-carboxylate] | 4.28 µM
14 | O=C(/C=C/C1=C(C(=O)O)N2C(=O)/C(=C/c3ccccn3)[C@H]2S(=O)(=O)C1)NCC(F)(F)F [Sodium; (R)-5,5,8-trioxo-7-[1-pyridin-2-yl-meth-(Z)-ylidene]-3-[(E)-2-(2,2,2-trifluoro-ethylcarbamoyl)-vinyl]-5lambda*6*-thia-1-aza-bicyclo[4.2.0]oct-2-ene-2-carboxylate] | 0.078 µM
15 | O=C(/C=C/C1=C(C(=O)O)N2C(=O)/C(=C/c3ccccn3)[C@H]2S(=O)(=O)C1)NCCO [Sodium; (R)-3-[(E)-2-(2-hydroxy-ethylcarbamoyl)-vinyl]-5,5,8-trioxo-7-[1-pyridin-2-yl-meth-(Z)-ylidene]-5lambda*6*-thia-1-aza-bicyclo[4.2.0]oct-2-ene-2-carboxylate] | 0.07 µM
16 | O=C(O)C1=C(c2ccccc2)CS(=O)(=O)[C@@H]2/C(=C\c3ccccn3)C(=O)N12 [Sodium; (R)-5,5,8-trioxo-3-phenyl-7-[1-pyridin-2-yl-meth-(Z)-ylidene]-5lambda*6*-thia-1-aza-bicyclo[4.2.0]oct-2-ene-2-carboxylate] | 9.14 µM
17 | O=C(O)C1=C(F)CS(=O)(=O)[C@@H]2/C(=C\c3ccccn3)C(=O)N12 [Sodium; (R)-3-fluoro-5,5,8-trioxo-7-[1-pyridin-2-yl-meth-(Z)-ylidene]-5lambda*6*-thia-1-aza-bicyclo[4.2.0]oct-2-ene-2-carboxylate] | 1.84 µM
18 | CS(=O)(=O)C1=C(C(=O)O)N2C(=O)/C(=C/c3ccccn3)[C@H]2S(=O)(=O)C1 [Sodium; (R)-3-methanesulfonyl-5,5,8-trioxo-7-[1-pyridin-2-yl-meth-(Z)-ylidene]-5lambda*6*-thia-1-aza-bicyclo[4.2.0]oct-2-ene-2-carboxylate] | 0.0076 µM
19 | O=C(O)C1=C(Br)CS(=O)(=O)[C@@H]2/C(=C\c3ccccn3)C(=O)N12 [Sodium; (R)-3-bromo-5,5,8-trioxo-7-[1-pyridin-2-yl-meth-(Z)-ylidene]-5lambda*6*-thia-1-aza-bicyclo[4.2.0]oct-2-ene-2-carboxylate] | 0.791 µM
20 | O=C(/C=C/C1=C(C(=O)O)N2C(=O)/C(=C/c3ccccn3)[C@H]2S(=O)(=O)C1)Nc1ccc(O)cc1 [Sodium; (R)-3-[(E)-2-(4-hydroxy-phenylcarbamoyl)-vinyl]-5,5,8-trioxo-7-[1-pyridin-2-yl-meth-(Z)-ylidene]-5lambda*6*-thia-1-aza-bicyclo[4.2.0]oct-2-ene-2-carboxylate] | 0.11 µM
21 | O=C(O)C1=C(C(=O)O)N2C(=O)/C(=C/c3ccccn3)[C@H]2S(=O)(=O)C1 [Disodium; (R)-3-carboxy-5,5,8-trioxo-7-[1-pyridin-2-yl-meth-(Z)-ylidene]-5lambda*6*-thia-1-aza-bicyclo[4.2.0]oct-2-ene-2-carboxylate] | 10.4 µM
22 | CN1CCN(C(=O)/C=C/C2=C(C(=O)O)N3C(=O)/C(=C/c4ccccn4)[C@H]3S(=O)(=O)C2)CC1 [Sodium; (R)-3-[(E)-3-(4-methyl-piperazin-1-yl)-3-oxo-propenyl]-5,5,8-trioxo-7-[1-pyridin-2-yl-meth-(Z)-ylidene]-5lambda*6*-thia-1-aza-bicyclo[4.2.0]oct-2-ene-2-carboxylate] | 0.053 µM
23 | O=C(O)C1=C(I)CS(=O)(=O)[C@@H]2/C(=C\c3ccccn3)C(=O)N12 [Sodium; (R)-3-iodo-5,5,8-trioxo-7-[1-pyridin-2-yl-meth-(Z)-ylidene]-5lambda*6*-thia-1-aza-bicyclo[4.2.0]oct-2-ene-2-carboxylate] | 1.28 µM
24 | NC(=O)/C=C/C1=C(C(=O)O)N2C(=O)/C(=C/c3ccccn3)[C@H]2S(=O)(=O)C1 [Sodium; (R)-3-((E)-2-carbamoyl-vinyl)-5,5,8-trioxo-7-[1-pyridin-2-yl-meth-(Z)-ylidene]-5lambda*6*-thia-1-aza-bicyclo[4.2.0]oct-2-ene-2-carboxylate] | 0.262 µM
